Results published in patent publication US12239637B2, “Compositions and methods for treating neurological disorders” (priority 2018, dated 2025).
Marks after values point to notes of the source that are not given here.

Legend:
Format in all cases: in vivo, rhesus monkeys
[1] = system: CD4+ and CD8+ T cells in the nigra; assay: Infiltration of CD4+ and CD8+ T cells into the nigra of hemiparkinsonian monkeys (immunostaining); conditions: oral 1 mg/kg body wt/d for 30 d from 7 d after MPTP; near blood vessel and in deep parenchyma of ventral midbrain
Excerpt: (§1) FIG. 2 (A-E). […] Naïve female rhesus monkeys received a right intracarotid injection of MPTP. […] MPTP group of monkeys also received normal banana as control. After 30 d of treatment, ventral midbrain sections were DAB-stained for CD4 (A, vessel; B, parenchyma). C) Sections were double-labeled for CD4 and TH. CD4-positive cells were counted in two nigral sections (D, within 100 μm around vessel; E, parenchyma within 100 to 200 μm around vessel) of each of four monkeys (n=4) per group. ap<0.001 vs. control; bp<0.01 vs. MPTP. Control represents the intact side of MPTP-intoxicated monkeys.
as §1, with “3 (A-D).” for “2 (A-E).”, “CD8” for “CD4”, “CD8-positive” for “C) Sections were double-labeled for CD4 and TH. CD4-positive”, “(C,” for “(D,”, “D,” for “E,”, “monkeys. […]” for “monkeys.”
(§2) At the end point, monkeys were anesthetized with pentobarbital (25 mg/kg intravenously) and killed via perfusion with 0.9% saline. […] These punches were processed for HPLC analysis (for quantification of neurotransmitters). […]

[2] = system: iNOS, Iba1-positive microglia, GFAP-positive astrocytes in the SNpc; assay: Glial inflammation in the SNpc of hemiparkinsonian monkeys (Iba1, GFAP, iNOS immunofluorescence); conditions: oral 1 mg/kg body wt/d for 30 d
Excerpt: FIG. 4 (A-E). […] After 30 d of treatment, nigral sections were double-labeled for Iba1 and iNOS (A) and GFAP and iNOS (B). Cells positive for Iba1 (C), GFAP (D) and iNOS (E) were counted using the olympus microsuite V software in two nigral sections (two images per slide) of each of four monkeys (n=4) per group. ap<0.001 vs. control; bp<0.001 vs MPTP; ns, not significant vs MPTP.
(§3) Female rhesus monkeys (6-8 years old; 5-7 kg) were used in this study. All animals were singly housed with a 12-h light/dark cycle. Purine monkey chow and water were available ad libitum. Diets were supplemented with fruit during the testing sessions. The study was performed in accordance with federal guidelines of proper animal care and with the approval of the IACUC. Monkeys were intoxicated with MPTP according to protocol described previously (12-16). Briefly, animals were tranquilized with ketamine (10 mg/kg, i.m.) and then maintained on an anesthetic plane with isoflurane (1-2%). The animals were put in the supine position. For each injection, a right-sided incision was made along the medial edge of the sternocleidomastoid muscle. […]
For immunofluorescence staining, anti-Iba-1 antibody (1:500), anti-iNOS antibody (1:1000), and anti-GFAP antibody (1:1000) were used. The samples were mounted and observed under an Olympus IX81 fluorescence microscope as described before (17-19).

α-syn = assay: α-Synucleinopathy in the nigra of hemiparkinsonian monkeys (TH and α-syn double-labeling); conditions: oral 1 mg/kg body wt/d for 30 d
Excerpt: FIG. 5 (A-C). […] Naïve female rhesus monkeys received a right intracarotid injection of MPTP. […] MPTP group of monkeys also received normal banana as control. After 30 d of treatment, nigral (A) sections were double-labeled for TH and α-syn. Total area (B) and integrated density (C) of α-syn bodies were quantified in two sections (two images per section) of each of four monkeys per group. ap<0.001 vs control (MPTP-intact); bp<0.001 vs MPTP-lesion.
as §3, with “position.” for “position. For each injection, a right-sided incision was made along the medial edge of the sternocleidomastoid muscle.”
as §2

[3] = system: TH-positive dopaminergic neurons and fibers; assay: TH immunostaining: dopaminergic neurons in the SNpc (stereology) and striatal TH fibers (optical density); conditions: oral 1 mg/kg body wt/d for 30 d, lesion side
Description: FIG. 6 (A-C). Oral maraviroc treatment protects dopaminergic neurons in the SNpc of hemiparkinsonian monkeys. Naïve female rhesus monkeys received a right intracarotid injection of MPTP. […] MPTP group of monkeys also received normal banana as control. A) After 30 d of treatment, nigral sections were immunostained for TH. B) A magnified image of TH-stained SNpc is shown. […] All counting were performed by a single investigator blinded to the experimental conditions. ap<0.001 vs MPTP-intact; bp<0.01 vs MPTP-lesion.
FIG. 7 (A-B). Oral maraviroc treatment protects THir fibers in the striatum of hemiparkinsonian monkeys. Naïve female rhesus monkeys received a right intracarotid injection of MPTP. […] MPTP group of monkeys also received normal banana as control. A) After 30 d of treatment, striatal sections were immunostained for TH. B) Optical density of TH fibers in caudate and putamen was calculated by digital image analysis. Six different striatal sections of each monkey were analyzed. ap<0.001 vs MPTP-intact; bp<0.01 vs MPTP-Caudate-lesion; cp<0.01 vs MPTP-Putamen-lesion.
Female rhesus monkeys (6-8 years old; 5-7 kg) were used in this study. […]
as §2

[4] = system: striatal dopamine, DOPAC and HVA; assay: HPLC analysis of striatal neurotransmitters in hemiparkinsonian monkeys; conditions: oral 1 mg/kg body wt/d for 30 d
Description: FIG. 8 (A-E). Maraviroc protects striatal dopamine in hemiparkinsonian monkeys. Naïve female rhesus monkeys received a right intracarotid injection of MPTP. […] MPTP group of monkeys also received normal banana as control. After 30 d of treatment, dopamine levels were measured in dorsomedial caudate (A), ventromedial caudate (B), dorsal putamen (C), ventral putamen (D), and nucleus accumbens (E). HPLC quantification of dopamine was performed by a single investigator blinded to the experimental conditions. Data are means±SEM of four monkeys per group. ap<0.001 vs MPTP-intact; bp<0.001 vs MPTP-lesion.
FIG. 9 (A-E). Maraviroc protects striatal DOPAC and HVA in hemiparkinsonian monkeys. Naïve female rhesus monkeys received a right intracarotid injection of MPTP. […] After 30 d of treatment, levels of DOPAC and HVA were measured in dorsomedial caudate (A), ventromedial caudate (B), dorsal putamen (C), ventral putamen (D), and nucleus accumbens (E). HPLC quantification of DOPAC and HVA was performed by a single investigator blinded to the experimental conditions. […]
as §2
Samples were analyzed for neurotransmitters by an investigator blind to the treatment groups. […]

hemiparkinsonian monkeys = assay: Behavioral analysis: parkinsonian rating scale (PD scale) and hand reaching task in hemiparkinsonian monkeys
Description: Female rhesus monkeys (6-8 years old; 5-7 kg) were used in this study. All animals were singly housed with a 12-h light/dark cycle. Purine monkey chow and water were available ad libitum. Diets were supplemented with fruit during the testing sessions. The study was performed in accordance with federal guidelines of proper animal care and with the approval of the IACUC. Monkeys were intoxicated with MPTP according to protocol described previously (12-16). Briefly, animals were tranquilized with ketamine (10 mg/kg, i.m.) and then maintained on an anesthetic plane with isoflurane (1-2%). The animals were put in the supine position. For each injection, a right-sided incision was made along the medial edge of the sternocleidomastoid muscle. The carotid sheath was opened and the common carotid artery, internal jugular vein, and vagus nerves were identified. The common carotid was exposed below the carotid bifurcation. The external carotid artery was then ligated. A 27 gauge butterfly needle was inserted into the common carotid artery in a direction retrograde to blood flow; for each injection, 20 ml of saline containing 3 mg of MPTP-HCl (Sigma) was infused at a rate of 1.33 ml/min (15 min). After the infusion was completed, 3 ml of saline was delivered, and then the incision was closed.
Monkeys displaying hemiparkinsonian symptoms 7 d after the first intracarotid injection were included in the study. […] The control group of hemiparkinsonian monkeys (n=4) received only banana as vehicle.
The animals were trained to a consistent level of performance before intracarotid injection of MPTP. Monkeys were rated thrice a week by an investigator blind to the treatment groups using a parkinsonian rating scale (PD scale) utilized to quantify the clinical status of the monkeys (13-16). The scale included ratings of 10 parkinsonian features (tremor, posture, locomotion, hypokinesia, bradykinesia, balance, fine and gross motor skills, startle response, and freezing). Each test consisted of twelve total trials alternating between arms, six per side. Delaying feeding time until after the task was completed ensured animals' compliance with the test. Data collected included the time taken for the animal to move its hand into the chamber where the fruit was located (reaction time), the time taken to pick up the fruit while the hand was in the chamber (reception time) and the total time taken to move the hand into the chamber, retrieve the fruit and bring the hand back out of the panel and into the cage (total time).
All values are expressed as means±SEM. Differences among means were analyzed by one-way ANOVA or Kruskal-Wallis test (comparison among all groups) and post-hoc pair-wise comparison. In other cases, two sample t tests were also used to compare control vs MPTP and MPTP vs MPTP+maraviroc. For behavioral analysis, one way repeated measure ANOVA models were used. Pair-wise comparisons were conducted with Bonferroni adjustment.

[5] = PD scale score after treatment, 1 mg/kg body wt/d orally, mean ± SEM, four monkeys

Substance: maraviroc
- infiltration of CD4+ T cells into the nigra [1]: significantly attenuated
- infiltration of CD8+ T cells into the nigra [1]: significantly attenuated
- expression of iNOS protein in the SNpc [2]: reduced
- number of astrocytes and microglia in the SNpc ([2]; GFAP- and Iba1-positive cells): did not significantly reduce
- α-syn pathology in the SNpc (α-syn): almost missing
- striatal TH fibers ([3]; caudate and putamen): significantly restored
- SNpc TH-positive neurons [3]: significantly restored
- levels of DOPAC and HVA in different parts of striatum [4]: restored
- DA in different parts of striatum ([4]; caudate, putamen, nucleus accumbens): pronounced preservation
- Balance (0-3) (hemiparkinsonian monkeys; [5]): 0.57 ± 0.04^a
- Brady kinesia (0-5) (hemiparkinsonian monkeys; [5]): 0.85 ± 0.28^a
- Defense Reaction (0-2) (hemiparkinsonian monkeys; [5]): 0.24 ± 0.07^a
- Freezing (0-2) (hemiparkinsonian monkeys; [5]): 0.39 ± 0.03^a
- Gait (0-5) (hemiparkinsonian monkeys; [5]): 0.25 ± 0.03^a
- General (Gross) motor skills (0-3), L Hand (hemiparkinsonian monkeys; [5]): 0.89 ± 0.05
- General (Gross) motor skills (0-3), R Hand (hemiparkinsonian monkeys; [5]): 0.01 ± 0.00
- Posture (0-3) (hemiparkinsonian monkeys; [5]): 0.39 ± 0.04^a
- Tremor (0-3), L Hand (hemiparkinsonian monkeys; [5]): 0.42 ± 0.03^a
- Tremor (0-3), R Hand (hemiparkinsonian monkeys; [5]): 0.00 ± 0.00
- Total (Sum mean) (hemiparkinsonian monkeys; PD scale total score after treatment, 1 mg/kg body wt/d orally, mean ± SEM, four monkeys): 4.01 ± 0.40^a
- functional ability on clinical rating scale and operant motor test (hemiparkinsonian monkeys; oral 1 mg/kg body wt/d for 30 d): significantly improved
- motor deficits in a hand-reach task (hemiparkinsonian monkeys; oral maraviroc): reversed
